What was measured:
[1] = tested on: Lewis lung carcinoma (LLC); experiment: LLC syngeneic mouse model of lung cancer; assay type: in vivo; settings: LLC mice; SX-682 50 mg/kg twice daily oral; anti-PD-1 100 μg twice weekly ip; treatment from day 18; N=5; FIG. 10
Protocol: The Lewis lung carcinoma (LLC) mouse model (Kellar, 2015, Biomed Res Int, 2015:621324, herein incorporated by reference) was used to evaluate the effect of SX-682 alone and in combination with anti-PD-1 antibody. LLC mouse […] cells were cultured, then mice were injected with 0.5×10^6 LLC cells on day 0, and on day 18 treatment was initiated. Mice were treated with vehicle (control), SX-682 alone (50 mg/kg twice daily, oral), anti-PD-1 alone (100 μg twice weekly, ip), or SX-682 in combination with anti-PD-1 (N=5 per cohort). SX-682 was used as a spray dried dispersion (Formulation Example 1), and was administered to mice via oral gavage as a suspension in 0.5% aq. methylcellulose. The results of this experiment can be seen in FIG. 10 and FIG. 11.

[2] = tested on: C3Tag mouse model of breast cancer; experiment: C3Tag mouse model of breast cancer; assay type: in vivo; settings: C3Tag mice; for median survival: SX-682 ~10 mg/day/mouse oral, CP 50 mg/kg ip weekly, up to 60 days, vehicle 18 days, FIG. 6
From the text: The C31-T-antigen (C3Tag) mouse model is a validated model of human triple-negative basal cell breast cancer as shown by gene expression analysis (Maroulakou, 1994, Proc Natl Acad Sci, 91:11236-40, herein incorporated by reference). The expressed large T-antigen binds and inactivates the RB and p53 tumor suppressor genes, explaining why this model faithfully recapitulates human basal breast cancer, which also harbors RB and p53 inactivation. This model also has frequent K-Ras amplification and infrequent Ras mutations. Treatment regimens were started following tumor manifestation. SX-682 was given orally via medicated feed, at an approximate dose of 10 mg/day/mouse. Carboplatin (CP) was administered once weekly via intraperitoneal injection at a dose of 50 mg/kg.

[3] = tested on: MDSCs isolated from blood of AOM/DSS-treated BALBc mice; experiment: GROα-mediated MDSC migration (transwell, flow cytometry count); assay type: cell-based, mouse; settings: SX-682 0.1, 1 and 10 μM; GROα (CXCL1) 100 ng/ml; 12 hours; FIG. 2
Protocol: Using the of method of Katoh, 2013, Cancer Cell, 24:631-44 (herein incorporated by reference), to induce and isolate MDSCs, male BALBc mice were given a single intraperitoneal injection of azoxymethane (AOM, 10 mg/kg). Seven days later, these mice were given 4 cycles of water and water containing 1.25% dextran sulfate sodium (DSS). One cycle consisted of providing mice with regular drinking water for 7 days, followed by 1.25% aqueous DSS for 7 days, followed by regular drinking water for 7 days. MDSCs were isolated from femurs and blood of AOM/DSS-treated BALBc mice using the Myeloid-Derived Suppressor Cell Isolation Kit (Miltenyi Biotec) after lysis of red blood cells (RBC) according to the manufacturer's instructions. GROα (CXCL1) was placed in the bottom chamber of a 24-well plate at a concentration of 100 ng/ml. MDSCs isolated from blood of AOM/DSS-treated BALBc mice were seeded at a density of 1×10^6/well in the upper chamber (3 m, BD Falcon). After incubation for 12 hours, migrated cells were quantified by flow cytometry using CountBright Absolute Counting Beads (Molecular Probes). […] The test concentrations of SX-682 were 0.1, 1 and 10 μM, and the DMSO concentration was ≤1%.

[4] = tested on: TRIA mouse model of melanoma; experiment: TRIA mouse model of melanoma; assay type: in vivo; settings: TRIA mice; SX-682 oral via medicated feed ~10 mg/day/mouse; CP 50 mg/kg ip once weekly; FIG. 7 and 8
Protocol: The Tyrosine-Hras/Ink/Arf null (TRIA) is a validated mouse model of melanoma features an immuno-competent autochthonous tumor; Ras events are in >70% of all melanomas, and ˜50% lose the INK4a/ARF locus which, with B-RAF mutations, is the most common lesion of this cancer (Sharpless, 2016, Cancer Cell 29:832-45). Treatment regimens were started following tumor manifestation. SX-682 was given orally via medicated feed, at an approximate dose of 10 mg/day/mouse. Carboplatin (CP) was administered once weekly via intraperitoneal injection at a dose of 50 mg/kg.

[5] = tested on: B16-F10 mouse melanoma cells; experiment: B16-F10 syngeneic mouse model of melanoma; assay type: in vivo; settings: B16-F10 mice; SX-682 50 mg/kg twice daily oral; anti-PD-1 100 μg twice weekly ip; treatment from day 18; N=4-5; FIG. 9
Protocol: The B16-F10 mouse model is a validated model of melanoma, Overwijk, 2001, Curr Protoc Immunol, Chapter 20: Units 20-21 (herein incorporated by reference). It was used to evaluate the effect of SX-682 alone and in combination with anti-PD1 antibody. B16-F10 mouse melanoma cells were cultured, then mice were injected with 0.5×10^6 B16-F10 cells on day 0, and treatment was initiated on day 18. Mice were treated with vehicle (control), SX-682 alone (50 mg/kg twice daily, oral), anti-PD-1 alone (100 μg twice weekly, ip), or SX-682 in combination with anti-PD-1 (N=4-5 per cohort). SX-682 was used as a spray dried dispersion (Formulation Example 1), and was administered to mice via oral gavage as a suspension in 0.5% aq methylcellulose. […] Data and error bars are the mean±SE.

[6] = tested on: Pten^pc−/−p53^pc−/−Smad4^pc−/− mouse prostate tumors; experiment: Pten/p53/Smad4 triple knockout mouse model of castration resistant prostate cancer; assay type: in vivo; settings: SX-682 50 mg/kg b.i.d. oral gavage; ICB 200 μg each anti-PD1 and anti-CTLA4 3×/week; 4-6 weeks; FIG. 12
Protocol: The genetically engineered Pten^pc−/−p53^pc−/−Smad4^pc−/− mouse is a prostate-specific PB promoter-driven (PB-Cre4) conditional triple knockout model (i.e., prostate-specific deletion of all three tumor suppressors, Pten, p53 and Smad4 occurs in the ‘prostate cancer’ or ‘pc’). […] SX-682 was used as a spray dried dispersion (Formulation Example 1), and was administered to mice via oral gavage as a suspension in 0.5% aq. methylcellulose. Treatment was continued for 4-6 weeks and prostate weights measured to determine tumor burden. […] Mean±SE.

[7] = tested on: T11 mouse model of breast cancer; experiment: T11 mouse model of breast cancer; assay type: in vivo; settings: T11 mice; SX-682 oral via medicated feed ~10 mg/day/mouse; CP 50 mg/kg ip once weekly; 1-2 weeks; N=7; P<0.0001; FIG. 4
From the text: The T11 model is a validated mouse model of breast cancer, which derives from the serial orthotopic transplantation of a murine breast tumor derived from a p53-null mouse into a syngeneic p53 competent recipient, and features sporadic, somatic K-Ras mutation (Herschkowitz, 2012, Proc Natl Acad Sci, 109:2778-83, herein incorporated by reference). Tumors from the T11 model display an RNA expression pattern characteristic of the human claudin-low disease, and are extremely aggressive, with the majority of untreated animals surviving less than 21 days from the time of enrollment in the therapy studies. Treatment regimens were started following tumor manifestation. SX-682 was given orally via medicated feed, at an approximate dose of 10 mg/day/mouse. In brief, the medicated feed was prepared by Research Diets (New Brunswick, N.J.) by incorporating 15.2 grams of SX-682 spray dried dispersion (as prepared in Formulation Example 1) into 1042 grams of standard rodent diet with 10% kcals from fat. The medicated feed was formed into pellets. Carboplatin (CP) was administered once weekly via intraperitoneal injection at a dose of 50 mg/kg. […] Mean±SE. *** P<0.0001 (linear regression).

[8] = tested on: 60 human tumor cell line panel; experiment: NCI 60 human tumor cell line panel, SRB growth inhibition; assay type: cell-based
Protocol: The chemokine CXCL8 and its receptors CXCR1 and CXCR2 have been identified as important mediators of cellular proliferation for a number of tumor cell types. To validate the relationship between CXCR1 and CXCR2 receptor antagonism and inhibition of tumor cell proliferation, SX-682 was evaluated against the 60 human tumor cell line panel at five concentration levels (0.01, 0.1, 1, 10, 100 μM) as performed by the Developmental Therapeutics Program at the National Cancer Institute (Shoemaker, 2006, Nat Rev Cancer, 6:813-23).
The human tumor cell lines of the cancer screening panel were grown in RPMI 1640 medium containing 5% fetal bovine serum and 2 mM L-glutamine. Cells were inoculated into 96 well microtiter plates in 100 μL at plating densities ranging from 5,000 to 40,000 cells/well depending on the doubling time of individual cell lines. After cell inoculation, the microtiter plates were incubated at 37° C., 5% CO2, 95% air and 100% relative humidity for 24 h prior to addition of SX-682.
After 24 h, two plates of each cell line are fixed in situ with TCA, to represent a measurement of the cell population for each cell line at the time of drug addition (Tz). SX-682 was solubilized in dimethyl sulfoxide at 400-fold the desired final maximum test concentration and stored frozen prior to use. At the time of SX-682 addition, an aliquot of frozen concentrate was thawed and diluted to twice the desired final maximum test concentration with complete medium containing 50 μg/ml gentamicin. Additional four, 10-fold or ½ log serial dilutions are made to provide a total of five drug concentrations plus control. Aliquots of 100 μl of these different drug dilutions were added to the appropriate microtiter wells already containing 100 μl of medium, resulting in the required final drug concentrations.
Following drug addition, the plates were incubated for an additional 48 h at 37° C., 5% CO2, 95% air, and 100% relative humidity. For adherent cells, the assay was terminated by the addition of cold TCA. Cells were fixed in situ by the gentle addition of 50 μl of cold 50% (w/v) TCA (final concentration, 10% TCA) and incubated for 60 minutes at 4° C. The supernatant was discarded, and the plates were washed five times with tap water and air dried. Sulforhodamine B (SRB) solution (100 μl) at 0.4% (w/v) in 1% acetic acid was added to each well, and plates were incubated for 10 minutes at room temperature. After staining, unbound dye was removed by washing five times with 1% acetic acid and the plates were air dried. Bound stain was subsequently solubilized with 10 mM TRIS, and the absorbance was read on an automated plate reader at a wavelength of 515 nm. For suspension cells, the methodology is the same except that the assay was terminated by fixing settled cells at the bottom of the wells by gently adding 50 μl of 80% TCA (final concentration, […]). Using the seven absorbance measurements (time zero, (Tz), control growth, (C), and test growth in the presence of drug at the five concentration levels (Ti)), the percentage growth was calculated at each of the drug concentrations levels. Percentage growth inhibition was calculated as: (Ti−Tz)/(C−Tz)×100 for concentrations for which Ti>/=Tz (Ti−Tz)/Tz×100 for concentrations for which Ti<Tz.
Three dose response parameters were calculated for each experimental agent. […] The drug concentration resulting in total growth inhibition (TGI) is calculated from Ti=Tz. The LC50 (concentration of drug resulting in a 50% reduction in the measured protein at the end of the drug treatment as compared to that at the beginning) indicating a net loss of cells following treatment is calculated from (Ti−Tz)/Tz×100=−50. Values are calculated for each of these three parameters if the level of activity is reached; however, if the effect is not reached or is exceeded, the value for that parameter is expressed as greater or less than the maximum or minimum concentration tested.

Row | SMILES | tumor growth (tumor area) [1] | tumor growth (tumor volume) ([2]; SX-682 oral via medicated feed ~10 mg/day/mouse, CP 50 mg/kg ip once weekly, 4-6 weeks, N=10-12, FIG. 5) | median survival [2] [days] | inhibition of GROα-mediated MDSC migration [3] | tumor growth (tumor volume) [4] | tumor growth (tumor area) [5] | tumor burden (prostate weight) [6] | tumor growth (tumor volume) [7] | proliferation of human tumor cells ([8]; 60 cell lines, 0.01, 0.1, 1, 10, 100 μM, 48 h, FIG. 3A-3I) | inhibition of tumor cell proliferation, renal cancer cell lines ([8]; 786-0, CAK-1, TK-10, RXF 393, UO-31, ACHN, SN12C, FIG. 3G) | inhibition of tumor cell proliferation, non-small cell lung cancer cell lines ([8]; A549, H226, H460, H23, H522, H322M, HOP-62, HOP-92, FIG. 3B) | inhibition of tumor cell proliferation, leukemia cell lines ([8]; CCRF-CEM, MOLT-4, HL-60, RPMI-8226, K-562, SR, 10^−8 to 10^−4 M, FIG. 3A) | inhibition of tumor cell proliferation, colon cancer cell lines ([8]; COLO 205, HCT-15, HCC-2998, KM12, HCT-116, SW-620, FIG. 3C) | inhibition of tumor cell proliferation, ovarian cancer cell lines ([8]; IBROV1, OVCAR-8, OVCAR-3, NCI/ADR-RES, OVCAR-5, SK-OV-3, FIG. 3F) | inhibition of tumor cell proliferation, melanoma cell lines ([8]; LOX IMVI, MDA-MB-435, SK-MEL-5, MALME-3M, SK-MEL-2, UACC-257, M14, SK-MEL-28, UACC-62, FIG. 3E) | inhibition of tumor cell proliferation, breast cancer cell lines ([8]; MCF7, BT-549, MDA-MB-231, T-47D, HS 578T, MDA-MB-468, FIG. 3I) | inhibition of tumor cell proliferation, prostate cancer cell lines ([8]; PC-3, DU-145, FIG. 3H) | inhibition of tumor cell proliferation, CNS cancer cell lines ([8]; SF-268, SNB-19, SF-295, SNB-75, SF-539, FIG. 3D)
1 | O=C(Nc1ccc(F)cc1)c1cnc(SCc2cc(OC(F)(F)F)ccc2B(O)O)nc1 [SX-682] | significantly slowed tumor growth | significantly reduced tumor growth as compared to untreated controls | 28 | effectively inhibit GROα-mediated MDSC migration in a dose-dependent manner | significantly slowed tumor growth comparable to CP alone | significantly slowed tumor growth | inhibited prostate cancer | effective therapy for breast cancer | directly affect the proliferation of human tumor cells | direct inhibition of tumor cell proliferation | direct inhibition of tumor cell proliferation | direct inhibition of tumor cell proliferation | direct inhibition of tumor cell proliferation | direct inhibition of tumor cell proliferation | direct inhibition of tumor cell proliferation | direct inhibition of tumor cell proliferation | direct inhibition of tumor cell proliferation | direct inhibition of tumor cell proliferation
2 | N.N.O=C([O-])C1(C(=O)[O-])CCC1.[Pt+2] [carboplatin, reference compound] | – | – | 28 | – | – | – | – | – | – | – | – | – | – | – | – | – | – | –

Reference: patent US10660909B2, “Method for treating cancer using chemokine antagonists” (Syntrix Biosystems Inc., priority 2016, dated 2020)
